Assay results taken from patent US20260015350A1, “AZAQUINAZOLINE PAN-KRAS INHIBITORS” (Mirati Therapeutics, Inc., priority 2022, published 2026).

What was measured:
KRas^G12D = molecular target: T1, KRas^G12D (Homo sapiens, UniProt P01116, G12D); experiment: KRas binding assay (TR-FRET tracer displacement), KRas G12D
T1 construct: Biotinylated KRas (corresponding to amino acids 1-169, produced at Accelegan Inc.); biotin (biotinylated); purchased Accelegan Inc

KRas^G12R = molecular target: T2, KRas^G12R (Homo sapiens, UniProt P01116, G12R); experiment: KRas binding assay (TR-FRET tracer displacement), KRas G12R
T2 construct: Biotinylated KRas (corresponding to amino acids 1-169, produced at Accelegan Inc.); biotin (biotinylated); purchased Accelegan Inc
T2 sequence (P01116 1-169 isoform P01116-2 G12R): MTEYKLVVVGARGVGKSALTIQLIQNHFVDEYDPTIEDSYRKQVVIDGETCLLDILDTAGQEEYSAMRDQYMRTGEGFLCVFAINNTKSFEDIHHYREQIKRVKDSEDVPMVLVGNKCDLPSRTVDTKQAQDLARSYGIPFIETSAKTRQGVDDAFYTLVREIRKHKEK

KRas^G12V = molecular target: T3, KRas^G12V (Homo sapiens, UniProt P01116, G12V); experiment: KRas binding assay (TR-FRET tracer displacement), KRas G12V
T3 construct: Biotinylated KRas (corresponding to amino acids 1-169, produced at Accelegan Inc.); biotin (biotinylated); purchased Accelegan Inc
T3 sequence (P01116 1-169 isoform P01116-2 G12V): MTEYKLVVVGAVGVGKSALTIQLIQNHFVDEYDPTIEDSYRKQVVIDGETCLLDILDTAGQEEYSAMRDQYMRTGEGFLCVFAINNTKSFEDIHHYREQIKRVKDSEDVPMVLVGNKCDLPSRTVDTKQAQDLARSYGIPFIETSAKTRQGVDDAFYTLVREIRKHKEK

[1] = test system: KRas-mediated phosphorylation of ERK in AsPC-1 cells; experiment: Inhibition of KRas-mediated phosphorylation of ERK (Cisbio HTRF pERK), AsPC-1 cells; type: cell-based; settings: Homo sapiens; for IC50: ASPC1, AsPC-1 cells, HTRF pERK
Procedure, shortened: (§1)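 Following a 3-hr exposure of cells to serially diluted compound (from 10 uM, 3-fold, 10 doses), cold lysis for 40 mins preceded a 2-hr room-temperature HTRF immunoassay for phosphorylated ERK.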

[2] = test system: KRas-mediated phosphorylation of ERK in H727 cells; experiment: Inhibition of KRas-mediated phosphorylation of ERK (Cisbio HTRF pERK), H727 cells; type: cell-based; settings: Homo sapiens; for IC50: NCI-H727, H727 cells, HTRF pERK
Procedure, shortened: as §1

[3] = test system: KRas-mediated phosphorylation of ERK in A549 cells; experiment: Inhibition of KRas-mediated phosphorylation of ERK (Cisbio HTRF pERK), A549 cells; type: cell-based; settings: Homo sapiens, A549, 3 h, single point, 100 nM compound, 3 hrs
Procedure, shortened: (§2)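 Signal read by HTRF (d2/Cryptate antibody pair, 2 hr room-temperature incubation on lysate). Cells: 6,000 per well, 3 hr compound exposure. Titration: 10 uM highest, 3-fold, 10 points.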

[4] = test system: KRas-mediated phosphorylation of ERK in H460 cells; experiment: Inhibition of KRas-mediated phosphorylation of ERK (Cisbio HTRF pERK), H460 cells; type: cell-based; settings: Homo sapiens, NCI-H460, 3 h, single point, 100 nM compound, 3 hrs
Procedure, shortened: as §1

[5] = test system: KRas-mediated phosphorylation of ERK in HCT116 cells; experiment: Inhibition of KRas-mediated phosphorylation of ERK (Cisbio HTRF pERK), HCT116 cells; type: cell-based; settings: Homo sapiens, HCT-116, 3 h, single point, 100 nM compound, 3 hrs
Procedure, shortened: as §2

[6] = test system: KRas-mediated phosphorylation of ERK in H358 cells; experiment: Inhibition of KRas-mediated phosphorylation of ERK (Cisbio HTRF pERK), H358 cells; type: cell-based; settings: Homo sapiens, NCI-H358, 3 h, single point, 100 nM compound, 3 hrs
Description: Inhibition of KRas Phosphorylation of ERK (HTRF) by Exemplary Compounds of Formula (I) Cisbio HTRF Advanced PERK Assay Catalog #64[…] […] Add 10 mL of media to stop trypsinizing. Pipette the cells into a conical bottom 50 mL centrifuge tube and centrifuge 5 min×1000 rpm. […] Re-suspend the cell pellet in media, take a cell count, and then adjust the cell density using fresh media. […] Seed 6,000 cells into cell culture plate with 50 μL media. […] Use Tecan to complete the compound addition. Compounds start from 10 uM top, 3-fold dilution, and 10 doses. The final DMSO concentration is 0.8%. Dispensed 0.2 uM Trametinib as Min control. […] Incubate cell plate for 3 hrs in the incubator. […] Dilute 1 volume of 4× lysis buffer with 3 volumes of deionized water. […] Keep lysis buffer on the ice. […] At the end of the compound treatment, flick-off the media. […] Add 35 μL of lysis buffer per well using a Multidrop Combi. Then place on a plate agitator shaking at 300 rpm at 4° C. for 40 mins. […] Make up the HTRF antibody buffer. For each assay plate, mix 50 μL of d2-conjugate antibody with 950 μL of detection buffer. Similarly, mix 50 μL of Cryptate antibody with 950 μL of detection buffer. Then mix the two diluted antibodies together. […] Dispense 3.4 μL the antibody buffer to wells of an empty assay plate. Seal the plate and centrifuge plate 30 sec×1000 rpm. […] At the end of the 4° C. lysis, centrifuge the lysate plates 3 mins×1500 rpm. […] Use the Bravo to transfer 13.6 μL of lysate from cell culture plate to assay plate. Then incubate assay plate for 2 hrs at room temperature. 8. At the end of incubation, read plate on the Envision after centrifuging plate 30 sec×1000 rpm.

T1 sequence (P01116 1-169 isoform P01116-2 G12D): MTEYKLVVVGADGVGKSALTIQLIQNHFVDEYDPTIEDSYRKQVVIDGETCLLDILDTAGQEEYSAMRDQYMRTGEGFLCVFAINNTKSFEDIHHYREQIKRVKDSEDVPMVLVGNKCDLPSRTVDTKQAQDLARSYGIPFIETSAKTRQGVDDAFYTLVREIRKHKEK

Structure (SMILES): CCc1c(F)ccc2cc(O)cc(-c3ncc4c(N5C[C@@H]6C[C@]6(c6nc(C)no6)C5)nc(OC[C@@]56CCCN5C[C@H](F)C6)nc4c3F)c12 [Example 607, 5-ethyl-6-fluoro-4-(8-fluoro-2-(((2R,7aS)-2-fluorotetrahydro-1H-pyrrolizin-7a(5H)-yl)methoxy)-4-((1R,5R)-1-(3-methyl-1,2,4-oxadiazol-5-yl)-3-azabicyclo[3.1.0]hexan-3-yl)pyrido[4,3-d]pyrimidin-7-yl)naphthalen-2-ol]
- IC50 (KRas^G12D): 151 nM
- IC50 (KRas^G12R): 99 nM
- IC50 (KRas^G12V): 53 nM
- IC50 [1]: 1740 nM
- IC50 [2]: 1770 nM
- inhibition at 0.1 µM [3]: 34%
- inhibition at 0.1 µM [4]: 62%
- inhibition at 0.1 µM [5]: 24%
- inhibition at 0.1 µM [6]: 9%

Structure (SMILES): CCc1c(F)ccc2cc(O)cc(-c3ncc4c(N5CCCc6nnncc6C5)nc(OC[C@@]56CCCN5C[C@H](F)C6)nc4c3F)c12 [Example 584, 4-(4-(8,9-dihydro-5H-[1,2,3]triazino[5,4-c]azepin-6(7H)-yl)-8-fluoro-2-(((2R,7aS)-2-fluorohexahydro-1H-pyrrolizin-7a-yl)methoxy)pyrido[4,3-d]pyrimidin-7-yl)-5-ethyl-6-fluoronaphthalen-2-ol]
- IC50 (KRas^G12D): < 2 nM
- IC50 (KRas^G12R): 12 nM
- IC50 (KRas^G12V): 6 nM
- inhibition at 0.1 µM ([1]; ASPC1, 3 h, single point, 100 nM compound, 3 hrs, AsPC-1 cells): -20%
- IC50 [1]: 231 nM
- inhibition at 0.1 µM ([2]; NCI-H727, 3 h, single point, 100 nM compound, 3 hrs, H727 cells): -18%
- IC50 [2]: 981 nM
- inhibition at 0.1 µM [3]: 14%
- inhibition at 0.1 µM [4]: 11%
- inhibition at 0.1 µM [5]: 3%
- inhibition at 0.1 µM [6]: 15%

Structure (SMILES): CCc1c(F)ccc2cc(O)cc(-c3ncc4c(N5CCCn6nc(S(=O)(=O)NC)cc6C5)nc(OC[C@@]56CCCN5C[C@H](F)C6)nc4c3F)c12 [Example 676, 5-(7-(8-ethyl-7-fluoro-3-hydroxynaphthalen-1-yl)-8-fluoro-2-(((2R,7aS)-2-fluorohexahydro-1H-pyrrolizin-7a-yl)methoxy)pyrido[4,3-d]pyrimidin-4-yl)-N-methyl-5,6,7,8-tetrahydro-4H-pyrazolo[1,5-a][1,4]diazepine-2-sulfonamide]
- IC50 (KRas^G12D): 2 nM
- IC50 (KRas^G12R): 5 nM
- IC50 (KRas^G12V): 6 nM
- IC50 [1]: 996 nM
- IC50 [2]: 5130 nM
- inhibition at 0.1 µM [3]: 19%
- inhibition at 0.1 µM [4]: 11%
- inhibition at 0.1 µM [5]: 4%
- inhibition at 0.1 µM [6]: -4%

Structure (SMILES): CCc1c(F)ccc2cc(O)cc(-c3ncc4c(N5CCC[C@@](C)(O)C5)nc(OCC56CC5CCN(C)C6)nc4c3F)c12 (stereo partly drawn) [Example 701, (3R)-1-(7-(8-ethyl-7-fluoro-3-hydroxynaphthalen-1-yl)-8-fluoro-2-((3-methyl-3-azabicyclo[4.1.0]heptan-1-yl)methoxy)pyrido[4,3-d]pyrimidin-4-yl)-3-methylpiperidin-3-ol]
- IC50 (KRas^G12D): 4 nM
- IC50 (KRas^G12R): 9 nM
- IC50 (KRas^G12V): 5 nM
- IC50 [1]: 101 nM
- IC50 [2]: 476 nM
- inhibition at 0.1 µM [3]: 20%
- inhibition at 0.1 µM [4]: 15%
- inhibition at 0.1 µM [5]: 0%
- inhibition at 0.1 µM [6]: 6%

Structure (SMILES): CCc1c(F)ccc2cc(O)cc(-c3ncc4c(N5CCC[C@@](C)(O)C5)nc(N5CC(C)(N)C5)nc4c3F)c12 [Example 530, (R)-1-(2-(3-amino-3-methylazetidin-1-yl)-7-(8-ethyl-7-fluoro-3-hydroxynaphthalen-1-yl)-8-fluoropyrido[4,3-d]pyrimidin-4-yl)-3-methylpiperidin-3-ol]
- IC50 (KRas^G12D): 59 nM
- IC50 (KRas^G12R): 91 nM
- IC50 (KRas^G12V): 66 nM
- IC50 [1]: 2770 nM
- IC50 [2]: 4390 nM
- inhibition at 0.1 µM [3]: 15%
- inhibition at 0.1 µM [4]: 18%
- inhibition at 0.1 µM [5]: -6%
- inhibition at 0.1 µM [6]: 6%
